# Earlier results, collected in patent EP4670741A1 (priority 2023, dated 2024).
# What was measured:
# [1] = biological target: T1, Topoisomerase I (Homo sapiens, UniProt P11387); conditions: Topoisomerase I inhibitor
# T1 sequence (P11387 1-765): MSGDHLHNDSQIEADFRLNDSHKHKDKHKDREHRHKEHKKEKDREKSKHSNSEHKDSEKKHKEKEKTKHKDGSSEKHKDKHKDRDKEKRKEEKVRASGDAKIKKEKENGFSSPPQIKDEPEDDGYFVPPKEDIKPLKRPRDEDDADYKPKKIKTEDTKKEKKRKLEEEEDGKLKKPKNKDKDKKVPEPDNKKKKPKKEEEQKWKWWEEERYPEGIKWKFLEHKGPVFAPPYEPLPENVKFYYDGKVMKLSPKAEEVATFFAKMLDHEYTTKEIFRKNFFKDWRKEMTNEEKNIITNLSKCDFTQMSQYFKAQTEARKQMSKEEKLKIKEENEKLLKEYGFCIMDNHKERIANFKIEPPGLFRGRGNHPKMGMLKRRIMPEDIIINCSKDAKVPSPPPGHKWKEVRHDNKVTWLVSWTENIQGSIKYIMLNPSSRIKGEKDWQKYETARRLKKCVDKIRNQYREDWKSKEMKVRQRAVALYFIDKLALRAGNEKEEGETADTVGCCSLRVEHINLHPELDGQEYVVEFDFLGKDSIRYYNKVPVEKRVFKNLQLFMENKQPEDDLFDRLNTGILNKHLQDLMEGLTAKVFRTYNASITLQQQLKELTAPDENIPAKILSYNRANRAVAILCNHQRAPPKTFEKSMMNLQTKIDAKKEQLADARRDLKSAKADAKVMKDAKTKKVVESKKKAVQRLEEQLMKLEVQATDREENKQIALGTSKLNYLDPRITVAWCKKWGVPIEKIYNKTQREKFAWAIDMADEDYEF
# [2] = tested on: various cancer cell lines; conditions: read-out: IC50 values; 140 cell lines derived from various tumor types; majority of tested cancer cells
Structure (SMILES),IC50 [1] [nM],IC50 [2] [nM]
CC[C@@]1(O)C(=O)OCc2c1cc1n(c2=O)Cc2c-1nc1cc(F)c(C)c3c1c2[C@@H](NC(=O)CO)CC3 [Dxd],310,
CC[C@@]1(O)C(=O)OCc2c1cc1n(c2=O)Cc2cc3cc4c(cc3nc2-1)OCO4 [FL118],,< 100
